Like-named read-outs stand apart in the source and are kept apart here.
What was measured:
[1] = tested on: human embryonic stem-cell derived retinal pigmented epithelium (hESC-RPE); assay: Drusen in vitro assay: APOE/APOE4 deposition induced by 5% human serum; assay type: cell-based; conditions: for minimal effective concentration: Embryonic stem cell, hESC-RPE, 24 h pre-incubation, then 48 h with 5% human serum
Experimental: (§1) Retinal Pigmented Epithelium Cell Culture: Human embryonic stem-cell derived retinal pigmented epithelium (hESC-RPE) were cultured on Transwell inserts for at least 4 weeks in serum-free XVIVO culture medium. After 4 weeks, polygonal, pigmented monolayers of hESC-RPE were visualized by phase contrast and bright-field microscopy, indicating appropriately matured RPE cells. Drusen assay experiments were performed after the initial 4-week maturation period.
(§2) Drusen Assay: Matured hESC-RPE monolayers were incubated with 5% complement competent human serum (HS) for 48 hours to elicit Drusen formation. After the 48 hour HS incubation period, hESC-RPE monolayers (whole inserts) were fixed with 4% paraformaldehyde for 10 minutes at room temperature. Following fixation, inserts were individually removed from plates and cut out of their holders using a scalpel yielding individual membranes with hESC-RPE monolayers. Membranes were transferred to 24-well plates for storage in phosphate buffered saline with calcium and magnesium (PBS+/+).
Drusen Assay with Atorvastatin Treatment: Matured hESC-RPE inserts were pre-incubated with varying concentrations of atorvastatin (ranging from […]) in both the top and bottom insert compartments for 24 hours in an incubator set at 37 °C with 5% CO2. On the following day, medium was exchanged with fresh culture medium containing atorvastatin and 5% HS and incubated for an additional 48 hours in an incubator set at 37 °C with 5% CO2. After 48 hour incubation period, inserts were fixed and processed for antibody staining.
Fixed membranes were incubated with block solution containing 1% bovine serum albumin (BSA) and 0.1% Triton X in PBS+/+ for 1 hr at room temperature. After the block incubation period, membranes were incubated overnight at 4 °C with primary antibody solution containing 1% BSA and goat anti-APOE4 antibody (1:250) and mouse anti-C5b9 antibody (1:250). On the following day, membranes were washed thrice for 10 min with PBS+/+ and incubated with secondary antibody solution containing 1% BSA and AlexaFluor donkey anti-goat 546 (1:200) and AlexaFluor donkey anti-mouse 488 (1:200) for 1 hr at room temperature in the dark. Following secondary antibody incubation period, membranes were washed thrice for 10 min with PBS+/+ and counterstained with Hoechst solution (1:1000) in PBS+/+ for 10 min at room temperature. Membranes were then transferred to microscope slides and mounted using ProLong Gold anti-fade solution and coverslips. Slides were imaged using a Leica SP8 Scanning Resonant Confocal Microscope using identical settings and laser power. At least 3 fields of view were collected per sample.
Image quantification and figure preparation: Fiji (Image J) software was used for processing all the images. All images were processed with the parameters described below: Contrast adjustment—the value of contrast for the APOE4 channel was set to 90-230 to improve the accuracy of object observation. Thresholding—the cutoff value of the threshold for the APOE4 channel was set as 100 to 255 to identify the pixels as real expressions. Size-Particles with an area larger than 1.5 A.U. were counted as true APOE4 expressions to minimize the likelihood of false positives in the image. Measurements, including deposit counts and the total area, were then exported as a .csv file for analysis. All images were taken in triplicate per treatment. Results are presented as mean±SEM and were graphed using Graph Pad PRISM v6. Statistical significance was established using one-way ANOVA tests followed by Tukey's multiple comparisons test.

[2] = tested on: human embryonic stem-cell derived retinal pigmented epithelium (hESC-RPE); assay: Complement activity: C5b-9 immunostaining in human serum-treated hESC-RPE; assay type: cell-based; conditions: increasing concentrations of atorvastatin; 5% human serum; FIG. 4
Experimental: as §1
as §2, with “(PBS+/+). […]” for “(PBS+/+).”
Image quantification and figure preparation: Fiji (Image J) software was used for processing all the images. […] Size-Particles with an area larger than 1.5 A.U. were counted as true APOE4 expressions to minimize the likelihood of false positives in the image. […]

eye = conditions: applied topically in the eye; Grant, Toxicology of the Eye; cited from earlier work
[3] = cited from earlier work

| SMILES | minimal effective concentration ([1]; read-out: concentration from which APOE deposition area decreased (starting at)) [µM] | minimal effective concentration ([1]; read-out: concentration from which total counts of APOE deposits decreased (starting at)) [µM] | total counts of APOE deposits at higher ATV concentrations ([1]; higher ATV concentrations (above 123 nM), 5% human serum, 48 h) | APOE deposition area at higher ATV concentrations ([1]; higher ATV concentrations (above 370 nM), 5% human serum, 48 h) | APOE deposition (area) ([1]; increasing atorvastatin concentrations, 5% human serum, 48 h) | total counts of APOE deposition ([1]; increasing atorvastatin concentrations, 5% human serum, 48 h, FIG. 3) | expression of APOE4 per field of view ([1]; increasing concentrations of atorvastatin, 5% human serum, FIG. 3) | C5b-9 expression / C5b-9 positive puncta per field of view [2] | eye damage on topical application (eye) | in vivo metabolism ([3]; in vivo, Handbook of Pesticide Toxicology) | excretion ([3]; urine, after oxidation of benzyl alcohol to benzoic acid and conjugation with glucuronic acid) | excretion (minor route) ([3]; urine, to a lesser extent, benzoic acid conjugated with glycine) |
| --- | --- | --- | --- | --- | --- | --- | --- | --- | --- | --- | --- | --- |
| CC(C)c1c(C(=O)Nc2ccccc2)c(-c2ccccc2)c(-c2ccc(F)cc2)n1CC[C@@H](O)C[C@@H](O)CC(=O)O [Atorvastatin, atorvastatin] | 0.37 | 0.123 | nearly complete elimination | nearly complete elimination | reduced APOE deposition dose-dependently | reduced the total counts of APOE deposition dose-dependently | decreased expression of APOE4 | reduces APOE4 and C5b-9 expression | – | – | – | – |
| O=C(OCc1ccccc1)c1ccccc1 [Benzyl benzoate] | – | – | – | – | – | – | – | – | no damage | hydrolyzed to benzoic acid and benzyl alcohol | excreted in the urine as benzoylglucuronic acid | excreted in the urine as hippuric acid |

Reference: patent US20260355154A1, “IMPLANTS, COMPOSITIONS, AND METHODS FOR TREATING RETINAL DISEASES AND DISORDERS” (Osanni Bio, Inc., priority 2024, published 2026)
